Measured values: patent US20120284812A1, “Herbicide-Tolerant Plants” (BASF AGROCHEMICAL PRODUCTS, B.V., priority 2009, published 2012)

Assays:
rice calli = test: Kill curves: tissue survival of rice calli on herbicide media; format: cell-based, Oryza sativa; details: determined by kill curves and observations of continued culture
Procedure: Once tissue culture conditions were determined, further establishment of selection conditions were established through the analysis of tissue survival in kill curves with cycloxydim, tepraloxydim, sethoxydim (FIG. 1) or haloxyfop (not shown). Careful consideration of accumulation of the herbicide in the tissue, as well as its persistence and stability in the cells and the culture media was performed. Through these experiments, a sub-lethal dose has been established for the initial selection of mutated material.
After the establishment of the starting dose of sethoxydim, cycloxydim, tepraloxydim, and haloxyfop in selection media, the tissues were selected in a step-wise fashion by increasing the concentration of the ACCase inhibitor with each transfer until cells are recovered that grew vigorously in the presence of toxic doses (see FIG. 2). The resulting calli were further subcultured every 3-4 weeks to R001M with selective agent. Over 26,000 calli were subjected to selection for 4-5 subcultures until the selective pressure was above toxic levels as determined by kill curves and observations of continued culture. Toxic levels were determined to be 50 μM sethoxydim, 20 μM cycloxydim, 2.5 μM tepraloxydim (FIG. 1) and 10 μM haloxyfop (not shown).

rice plants = test: Greenhouse spray test of regenerants, rated for herbicide injury; format: in vivo, Oryza sativa; details: 400-1600 g ai/ha, 0.1% methylated seed oil, 1 and 2 weeks after treatment
Procedure: Selected mutants and escapes were transferred to small pots. Wild-type cultivars and 3 biovars of red rice were germinated from seed to serve as controls.
After ca. 3 weeks post-transplant, MO regenerants were sprayed using a track sprayer with 400-1600 g ai/ha cycloxydim (BAS 517H) supplemented with 0.1% methylated seed oil. After the plants had adapted to greenhouse conditions, a subset were sprayed with 800 g ai/ha cycloxydim. Once sprayed, plants were kept on drought conditions for 24 hours before being watered and fertilized again. Sprayed plants were photographed and rated for herbicide injury at 1 (FIG. 3) and 2 weeks after treatment (FIG. 4). […] FIGS. 5-15 provide nucleic acid and/or amino acid sequences of acetyl-Coenzyme A carboxylase enzymes from various plants. FIG. 17 provides a graph showing results for mutant rice versus various ACCase inhibitors.

[1] = test system: ACCase-inhibitor tolerant rice plants; test: Field treatment of ACCase-inhibitor tolerant rice plants; format: in vivo; details: 600 g/ha treatment, data not shown

CCCC(=NOCC)C1=C(O)CC(C2CCCSC2)CC1=O (stereo not shown) [cycloxydim]
Toxic levels (rice calli): 20 µM | herbicide injury (rice plants; control plants and tissue culture escapes): heavily damaged | herbicide injury (rice plants; plants containing the I1,781 (Am)L heterozygous mutation): No injury | herbicide tolerance phenotypes in the field [1]: exhibited

CC(Oc1ccc(Oc2ncc(C(F)(F)F)cc2Cl)cc1)C(=O)O (stereo not shown) [haloxyfop]
Toxic levels (rice calli): 10 µM

CCC/C(=N\OCC)C1=C(O)CC(CC(C)SCC)CC1=O (stereo not shown) [sethoxydim]
Toxic levels (rice calli): 50 µM

CC/C(=N\OC/C=C/Cl)C1=C(O)CC(C2CCOCC2)CC1=O (stereo not shown) [tepraloxydim]
Toxic levels (rice calli): 2.5 µM
